Laboratory results reported in US4767749A, “Ester of (triarylphosphoranylidene)carbamic acid having diuretic and ability to lower plasma renin properties” (American Cyanamid Company, priority 1986, dated 1988).
Like-named read-outs stand apart in the source and are kept apart here.

What was measured:
[1] = system: cardiac contractility in anesthetized dogs; test: Effect on cardiac contractility in anesthetized dogs, intravenous; format: in vivo, dog; settings: intravenous administration; same effect as in isolated rat heart (Table IV)
[2] = system: spontaneously hypertensive rats (SHR); test: Diuretic activity in spontaneously hypertensive rats; format: in vivo, male spontaneously hypertensive rats (Okamoto strain); settings: 100 mg/kg by gavage with 0.9% sodium chloride loading 25 ml/kg; 0-5 hour urine
Method: The diuretic activity of the compounds of this invention was also determined according to the method of Chan, P. S. and Poorvin, D., Sequential method for combined screening antihypertensive and diuretic agents in the same spontaneously hypertensive rat. Clinical and Experimental Hypertension, 1(6), 817-830 (1979).
Male spontaneously hypertensive rats (SHR) of Okamoto strain, 16 weeks old, Taconic Farms Inc. were used in the test. These rats were kept on Purina laboratory chow and tap water ad libitum for 8 weeks before use. One male adult rat (about 300 g) was dosed by gavage with a test compound at 100 mg/kg together with 0.9% sodium chloride loading at 25 ml/kg at zero hour. The test compound was suspended in 3% preboiled starch at 50 mg/ml. The rat was put in a metabolism cage. The 0-5 hour urine was collected and urinary sodium and potassium were determined using a Beckman Astra 4. The effects of representative compounds of the invention according to this test appear in Table III expressed in milliequivalents (mEQ) of urinary sodium and potassium excreted.

plasma renin activity [3] = test: Inhibition of evoked (drug-induced) elevation of plasma renin activity in conscious rats; format: in vivo, male Wistar rats; settings: Rattus norvegicus, 30 min before provocative treatment; for inhibition in vivo at 25 mg/kg: 25 mg/kg oral
Method: Inhibition of evoked increase of plasma renin activity was determined by the following test.
Compounds were tested for their ability to prevent drug-induced elevation of plasma renin activity (PRA) in concious, male Wistar rats (180-200 g, Charles River Lab.). PRA elevation was induced by a combined oral provacative treatment (C) of hydrochlorothiazide (10 mg/kg) and 1-(3-benzoyl-3-mercapto-2-methylpropionyl)-L-proline, acetate (U.S. Pat. No. 4,226,775) (one mg/kg), prepared by compounding in a mortar and pestle with preboiled 3% starch suspension. This treatment provided the daily maximum PRA. The daily minimum PRA was obtained from rats given oral starch suspension (S) alone. The magnitude of drug effect on PRA elevation was ascertained from rats pretreated orally with test agent (D), at the indicated doses, 30 minutes prior to administration of provacative treatment (C). The test agent was also compounded in preboiled 3% starch suspension. The dose volumes for both pretreatment and provocative treatment were 2 ml/kg. One hour after provocative treatment the rats were sacrificed by decapitation and the first 3 seconds of blood collected in two chilled Vacutainer® tubes (Becton-Dickinson, Rutherford, N.J.) containing 40 μl of 150 mg/ml tripotassium EDTA. The plasma fractions, obtained by centrifugation for 20 minutes at 4° C. and 3000 G, were incubated (one of each pair at 37° C., the other at 4° C.) at pH 6.8 in 50 mM phosphate buffer to produce angiotensin I. The incubates contained peptidase inhibitors to prevent angiotensin I degradation and the incubation buffer contained one mg/ml lysozyme (Sigma Grade III) used as an antiabsorbant. The incubates were diluted 20 fold in cold 100 mM Tris buffer (pH adjusted to 7.4 with glacial acetic acid) also containing one mg/ml lysozyme, and then frozen. Diluted incubates were assayed within 3 days for angiotensin I content by radioimmunoassay according to a modification of the method of Haber, et al., J. Clin. Endocrin., 29, 1349-1355 (1969).
PRA is calculated as follows:
PRA(ng AI/hour/ml plasma)=PRA 37° C.-PRA 4° C.
Percent inhibition of PRA elevation is calculated as follows: [formula]

plasma renin activity [4] = test: Lowering of plasma renin activity in normal conscious rats; format: in vivo, male Wistar rats; settings: single 25 mg/kg oral dose, 6 rats
Method: Compounds were tested for their ability to lower plasma renin activity of conscious, male Wistar rats (180-200 g, Charles River Labs.). Test agents were compounded in a mortar and pestle with 3% preboiled starch suspension. Rats were dosed orally by gavage with 25 mg/kg test agent in a dose volume of 2 ml/kg. At time zero and 1/3, 1, 3 and 6 hours relative to dosing, rats were sacrificed by decapitation and the first 3 seconds of blood collected in two chilled Vacutainer® tubes (Becton-Dickinson, Rutherford, N.J.) containing 40 μl of 150 mg/ml tripotassium EDTA. Plasma fractions, obtained by centrifugation for 20 minutes at 4° C. and 3000 G, were incubated (one of each pair at 37° C., the other at 4° C.) at pH 6.8 in 50 mM phosphate buffer to produce angiotensin I. The incubates contained peptidase inhibitors to prevent angiotensin I degradation and the buffer contained one mg/ml lysozyme (Sigma Grade III) used as an antiabsorbant. The incubates were diluted 20 fold in cold Tris buffer (pH adjusted to 7.4 with glacial acetic acid) also containing one mg/ml lysozyme, and then frozen. Diluted incubates were assayed within 3 days for angiotensin I content by radioimmunoassay according to a modification of the method of Haber, et al., J. Clin. Endocrin., 29, 1349-1355 (1969). Renin activity is calculated as the rate of production of angiotensin I (nanograms of angiotensin I/ml plasma/hour at 37° C.) less controls (rate at 4° C.).

isolated rat hearts = test: Cardiodynamic effects in the isolated perfused rat heart preparation; settings: for activation at 1 µg/mL / activation at 4 µg/mL / activation at 8 µg/mL: Rattus norvegicus; for HR (mean % change): rate of cardiac contraction
Method: The effect of (triphenylphospharnylidene)carbamic acid, ethyl ester on cardiac contractility was determined by the following test.
Isolated rat hearts were prepared and perfused essentially as described by Neely and Rovetto, Techniques for perfusing isolated rat hearts., in Methods of Enzymology, 24, part D, 43-60 (1975), J. G. Hardman and B. W. O'Malley (eds.), Academic Press, New York, N.Y. The hearts were cooled in ice cold saline and transferred to a Langendorff apparatus and perfused in a retrograde fashion with oxygenated Krebs-Henseleit buffer at 37° C. A 2-0 silk thread was secured to the left ventricular apex and run via pulleys to a force displacement transducer (Grass Instrument Co., model FT03C). Force of contraction (F), the first derivative of force with respect to time (dF/dt), and rate of cardiac contraction (HR) were monitored on a polygraph recorder (Grass Instrument Co., model 7D).
The perfusion medium was a modified Krebs-Henseleit buffer of the following composition:
This medium was equilibrated with 95% oxygen:5% carbon dioxide at 37° C.
(Triphenylphosphoranylidene)carbamic acid, ethyl ester was dissolved in absolute ethanol at a concentration of 10 mg/ml and then diluted with Krebs-Henseleit buffer to the required stock concentration. The stock solution was infused at a constant rate by a syringe pump into the flow of buffer presented to the isolated heart at a rate necessary to achieve the desired final concentration.

Row | Structure (SMILES) | Potassium (urinary excretion) [2] [mEQ/5 Hours] | Sodium (urinary excretion) [2] [mEQ/5 Hours] | Volume (urine) [2] [mL] | inhibition in vivo at 25 mg/kg (plasma renin activity [3]) [%] | further results
1 | CCOC(=O)N=P(c1ccccc1)(c1ccccc1)c1ccccc1 [(Triphenylphosphoranylidene)carbamic acid, ethyl ester] | 0.50 | 1.86 | 15.5 | 80 | effect on cardiac contractility in anesthetized dogs [1]: The same effect has been achieved; inhibition in vivo at 3 mg/kg (plasma renin activity [3]; 3 mg/kg oral): 22%; inhibition in vivo at 5 mg/kg (plasma renin activity [3]; 5 mg/kg oral): 29%; inhibition in vivo at 7 mg/kg (plasma renin activity [3]; 7 mg/kg oral): 46%; inhibition in vivo at 10 mg/kg (plasma renin activity [3]; 10 mg/kg oral): 81%; inhibition in vivo at 15 mg/kg (plasma renin activity [3]; 15 mg/kg oral): 79%; % Lowering of plasma renin activity (plasma renin activity [4]; 0 hours after dose): 0%; % Lowering of plasma renin activity (plasma renin activity [4]; 1/3 hour after dose): 38%; % Lowering of plasma renin activity (plasma renin activity [4]; 1 hour after dose): 74%; % Lowering of plasma renin activity (plasma renin activity [4]; 3 hours after dose): 59%; % Lowering of plasma renin activity (plasma renin activity [4]; 6 hours after dose): 40%; activation at 1 µg/mL (isolated rat hearts; final drug concentration 1 mg/liter, 7 hearts, read-out: Concentration Force (g) (mean % change)): 5%; activation at 1 µg/mL (isolated rat hearts; final drug concentration 1 mg/liter, 7 hearts, read-out: dF/dt (g/sec) (mean % change)): 6%; activation at 4 µg/mL (isolated rat hearts; final drug concentration 4 mg/liter, 6 hearts, read-out: Concentration Force (g) (mean % change)): 18%; activation at 4 µg/mL (isolated rat hearts; final drug concentration 4 mg/liter, 6 hearts, read-out: dF/dt (g/sec) (mean % change)): 16%; activation at 8 µg/mL (isolated rat hearts; final drug concentration 8 mg/liter, 5 hearts, read-out: Concentration Force (g) (mean % change)): 24%; activation at 8 µg/mL (isolated rat hearts; final drug concentration 8 mg/liter, 5 hearts, read-out: dF/dt (g/sec) (mean % change)): 21%; HR (mean % change) (isolated rat hearts; final drug concentration 1 mg/liter, 7 hearts): -3 mean % change; HR (mean % change) (isolated rat hearts; final drug concentration 4 mg/liter, 6 hearts): -2 mean % change; HR (mean % change) (isolated rat hearts; final drug concentration 8 mg/liter, 5 hearts): -2 mean % change
2 | O=C(N=P(c1ccccc1)(c1ccccc1)c1ccccc1)OCc1cccnc1 [(triphenylphosphoranylidene)carbamic acid, 3-pyridinylmethyl ester] | 1.00 | 1.60 | 14.5 | 40 | –
3 | COC(=O)N=P(c1ccccc1)(c1ccccc1)c1ccccc1Cl [[(2-chlorophenyl)diphenylphosphoranylidene]carbamic acid, methyl ester] | 0.94 | 2.30 | 20.0 | 98 | –
4 | COC(=O)N=P(c1ccccc1)(c1ccccc1)c1c(C)cccc1C [[(2,6-dimethylphenyl)diphenylphosphoranylidene]carbamic acid, methyl ester] | 0.84 | 1.33 | 12.8 | 68 | –
5 | Cc1ccccc1P(=NC(=O)OC1CCOC1)(c1ccccc1)c1ccccc1 (stereo not shown) [[(2-Methylphenyl)diphenylphosphoranylidene]carbamic acid, tetrahydro-3-furanyl ester] | 0.97 | 2.71 | 22.3 | 93 | –
